Results on 35 compounds are retold here after ChEMBL document CHEMBL4602648, “The bioisosteric modification of pyrazinamide derivatives led to potent antitubercular agents: Synthesis via click approach and molecular docking of pyrazine-1,2,3-triazoles” (Bioorg Med Chem Lett, 2020).

Values after ≈ are worked out from the molar mass of the structure shown. Active and inactive are the calls of the source. The rule behind the calls is not given here. Where only a bound is given, the exact number is not on record here.

One assay relates to Pseudomonas aeruginosa. The assay is described as follows: Antibacterial activity against Pseudomonas aeruginosa by dilution assay. Type of assay: functional.
Assay [1] deals with T1, Enoyl-[acyl-carrier-protein] reductase [NADH] (Mycobacterium tuberculosis) (UniProt P9WGR1).
T1 sequence (whole entry): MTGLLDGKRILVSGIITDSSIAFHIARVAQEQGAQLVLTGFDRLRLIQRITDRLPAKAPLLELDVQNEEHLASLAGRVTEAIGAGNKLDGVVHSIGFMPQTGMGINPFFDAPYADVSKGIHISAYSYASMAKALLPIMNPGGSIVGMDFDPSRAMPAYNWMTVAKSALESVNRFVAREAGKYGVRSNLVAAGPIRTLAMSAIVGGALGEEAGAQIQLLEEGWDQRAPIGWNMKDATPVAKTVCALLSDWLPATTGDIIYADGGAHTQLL
The assay is described as follows: Inhibition of Mycobacterium tuberculosis H37Rv ATCC 27294 InhA assessed as bacterial growth inhibition after 5 days by microplate alamar blue assay. On the technique in general: Alamar Blue is a resazurin reagent that responds to reducing activity.

In the next assay the test system is Staphylococcus aureus. The assay can be described thus: Antibacterial activity against Staphylococcus aureus by dilution assay. Format: functional.
In another assay the test system is Escherichia coli. The assay can be described thus: Antibacterial activity against Escherichia coli by dilution assay. Type of assay: functional.

For `O=C(OCc1cn(Cc2ccc(C(F)(F)F)cc2)nn1)c1cccnc1`, the MIC came to 50 µg/mL (≈ 138 µM) against Pseudomonas aeruginosa, 34.5 µM (≈ 12.5 µg/mL) in assay [1], 25 µg/mL (≈ 69 µM) against Staphylococcus aureus and 25 µg/mL (≈ 69 µM) with Escherichia coli.
As for `O=C(OCc1cn(Cc2ccc(F)cc2)nn1)c1ccccc1`, the MIC with Pseudomonas aeruginosa turned out to be 25 µg/mL (≈ 80.3 µM); in assay [1], 80.3 µM (≈ 25 µg/mL); against Staphylococcus aureus, 25 µg/mL (≈ 80.3 µM); against Escherichia coli, 50 µg/mL (≈ 161 µM).
In the case of `O=C(OCc1cn(Cc2ccc([N+](=O)[O-])cc2)nn1)c1cnccn1`, the MIC in the assay with Pseudomonas aeruginosa came out at 50 µg/mL (≈ 147 µM); in assay [1] it was 18.4 µM (≈ 6.25 µg/mL); against Staphylococcus aureus, 25 µg/mL (≈ 73.5 µM); against Escherichia coli, 25 µg/mL (≈ 73.5 µM).
As for `O=C(NCc1cn(Cc2ccccc2F)nn1)c1cnccn1`, the MIC amounted to 12.5 µg/mL (≈ 40 µM) against Pseudomonas aeruginosa, 9.99 µM (≈ 3.12 µg/mL) in assay [1], 6.25 µg/mL (≈ 20 µM) against Staphylococcus aureus and 12.5 µg/mL (≈ 40 µM) in the assay with Escherichia coli.
For `NC(=O)c1cnccn1`, the MIC in assay [1] turned out to be 25.3 µM (≈ 3.12 µg/mL).
As for `Cc1ccc(Cn2cc(CSc3nnc(-c4cccnc4)o3)nn2)cc1`, the MIC in the assay on Pseudomonas aeruginosa is 225 µg/mL (≈ 617 µM); in assay [1], 34.3 µM (≈ 12.5 µg/mL); against Staphylococcus aureus, 12.5 µg/mL (≈ 34.3 µM); against Escherichia coli it was 252 µg/mL (≈ 691 µM).
On the same counts, the results for `Fc1ccc(Cn2cc(CSc3nnc(-c4cccnc4)o3)nn2)cc1` are “inactive”, over 100 µM, 50 µg/mL (≈ 136 µM) and “inactive”.
On to `O=C(NCc1cn(Cc2ccc(C(F)(F)F)cc2)nn1)c1ccccc1`, for which the MIC in the assay on Pseudomonas aeruginosa is 25 µg/mL (≈ 69.4 µM); in assay [1] it was over 100 µM; against Staphylococcus aureus, 50 µg/mL (≈ 139 µM). Moreover, in the assay on Escherichia coli, the MIC entry was “inactive”.
For `O=C(OCc1cn(Cc2ccc(F)cc2)nn1)c1cccnc1`, the MIC was 50 µg/mL (≈ 160 µM) against Pseudomonas aeruginosa, over 100 µM in assay [1] and 50 µg/mL (≈ 160 µM) against Staphylococcus aureus. Besides, in the assay on Escherichia coli, the MIC result was “inactive”.
In the case of `O=C(OCc1cn(Cc2ccccc2F)nn1)c1cnccn1`, the MIC in the assay on Pseudomonas aeruginosa came to 50 µg/mL (≈ 160 µM); in assay [1] it was 19.9 µM (≈ 6.23 µg/mL); in the assay with Staphylococcus aureus, 25 µg/mL (≈ 79.8 µM); against Escherichia coli, 25 µg/mL (≈ 79.8 µM).
With `O=C(OCc1cn(Cc2ccc([N+](=O)[O-])cc2)nn1)c1cccnc1`, the MIC with Pseudomonas aeruginosa was determined as 25 µg/mL (≈ 73.7 µM); in assay [1], 36.8 µM (≈ 12.5 µg/mL); against Staphylococcus aureus it was 25 µg/mL (≈ 73.7 µM); with Escherichia coli, 25 µg/mL (≈ 73.7 µM).
As for `O=C(OCc1cn(Cc2ccccc2F)nn1)c1ccccc1`, the MIC is 50 µg/mL (≈ 161 µM) in the assay on Pseudomonas aeruginosa, 80.3 µM (≈ 25 µg/mL) in assay [1], 25 µg/mL (≈ 80.3 µM) in the assay on Staphylococcus aureus and 25 µg/mL (≈ 80.3 µM) against Escherichia coli.
Consider `Fc1ccccc1Cn1cc(CSc2nnc(-c3cccnc3)o2)nn1`, for which the MIC against Pseudomonas aeruginosa is 25 µg/mL (≈ 67.9 µM); in assay [1], over 100 µM; against Staphylococcus aureus, 50 µg/mL (≈ 136 µM); in the assay with Escherichia coli, 50 µg/mL (≈ 136 µM).
On to `O=C(NCc1cn(Cc2ccccc2F)nn1)c1ccccc1`, for which the MIC in the assay on Pseudomonas aeruginosa is 50 µg/mL (≈ 161 µM); in assay [1] it was over 100 µM; against Staphylococcus aureus it was 50 µg/mL (≈ 161 µM). The MIC entry in the assay on Escherichia coli was “inactive”.
In the case of `O=C(OCc1cn(Cc2ccc(C(F)(F)F)cc2)nn1)c1ccccc1`, the MIC result in the assay with Pseudomonas aeruginosa and in the assay on Escherichia coli was “inactive” throughout. In addition, the results for the MIC (in assay [1]; in the assay on Staphylococcus aureus) were over 100 µM and 50 µg/mL (≈ 138 µM), respectively.
Regarding `O=C(NCc1cn(Cc2ccc([N+](=O)[O-])cc2)nn1)c1ccccc1`, the MIC in the assay on Pseudomonas aeruginosa was 50 µg/mL (≈ 148 µM); in assay [1] it was over 100 µM; with Staphylococcus aureus, 50 µg/mL (≈ 148 µM); against Escherichia coli, 50 µg/mL (≈ 148 µM).
`N#Cc1ccc(Cn2cc(CSc3nnc(-c4cnccn4)o3)nn2)cc1`: the MIC against Pseudomonas aeruginosa amounted to 50 µg/mL (≈ 133 µM); in assay [1], 16.6 µM (≈ 6.25 µg/mL); in the assay on Staphylococcus aureus, 25 µg/mL (≈ 66.4 µM); with Escherichia coli, 50 µg/mL (≈ 133 µM).
Regarding `O=[N+]([O-])c1ccc(Cn2cc(CSc3nnc(-c4cnccn4)o3)nn2)cc1`, the MIC in the assay on Pseudomonas aeruginosa worked out at 25 µg/mL (≈ 63.1 µM); in assay [1] it was 15.8 µM (≈ 6.25 µg/mL); in the assay with Staphylococcus aureus, 12.5 µg/mL (≈ 31.5 µM). Also, the MIC result with Escherichia coli was “inactive”.
As to `N#Cc1ccc(Cn2cc(COC(=O)c3cnccn3)nn2)cc1`, the MIC against Pseudomonas aeruginosa came to 25 µg/mL (≈ 78 µM); in assay [1], 9.74 µM (≈ 3.12 µg/mL); in the assay on Staphylococcus aureus, 12.5 µg/mL (≈ 39 µM); in the assay with Escherichia coli, 50 µg/mL (≈ 156 µM).
Take `N#Cc1ccc(Cn2cc(COC(=O)c3ccccc3)nn2)cc1`: the MIC in the assay on Pseudomonas aeruginosa worked out at 50 µg/mL (≈ 157 µM); in assay [1], 39.3 µM (≈ 12.5 µg/mL); against Staphylococcus aureus, 25 µg/mL (≈ 78.5 µM); in the assay with Escherichia coli, 25 µg/mL (≈ 78.5 µM).
`Fc1ccc(Cn2cc(CSc3nnc(-c4cnccn4)o3)nn2)cc1`: the MIC in the assay with Pseudomonas aeruginosa was determined as 50 µg/mL (≈ 135 µM); in assay [1], 33.8 µM (≈ 12.5 µg/mL); against Staphylococcus aureus, 25 µg/mL (≈ 67.7 µM); with Escherichia coli, 25 µg/mL (≈ 67.7 µM).
As for `O=C(OCc1cn(Cc2ccc([N+](=O)[O-])cc2)nn1)c1ccccc1`, the MIC entry in the assay on Pseudomonas aeruginosa and in the assay on Escherichia coli was “inactive” throughout. The results for the MIC (in assay [1]; in the assay on Staphylococcus aureus) were over 100 µM and 50 µg/mL (≈ 148 µM), respectively.
As for `O=C(NCc1cn(Cc2ccc(F)cc2)nn1)c1ccccc1`, the MIC result in the assay with Pseudomonas aeruginosa and in the assay on Escherichia coli was “inactive” each time. Further, the MIC is over 100 µM in assay [1] and 50 µg/mL (≈ 161 µM) against Staphylococcus aureus.
For `O=C(OCc1cn(Cc2ccccc2F)nn1)c1cccnc1`, the MIC came to 50 µg/mL (≈ 160 µM) with Pseudomonas aeruginosa, 80 µM (≈ 25 µg/mL) in assay [1], 50 µg/mL (≈ 160 µM) with Staphylococcus aureus and 25 µg/mL (≈ 80.1 µM) in the assay with Escherichia coli.
Turning to `O=C(NCc1cn(Cc2ccccc2F)nn1)c1cccnc1`, the MIC with Pseudomonas aeruginosa is 25 µg/mL (≈ 80.3 µM); in assay [1], 10 µM (≈ 3.12 µg/mL); against Staphylococcus aureus, 6.25 µg/mL (≈ 20.1 µM); against Escherichia coli it was 25 µg/mL (≈ 80.3 µM).
As to `N#Cc1ccc(Cn2cc(CNC(=O)c3ccccc3)nn2)cc1`, the MIC against Pseudomonas aeruginosa came to 25 µg/mL (≈ 78.8 µM); in assay [1] it was 39.4 µM (≈ 12.5 µg/mL); with Staphylococcus aureus, 25 µg/mL (≈ 78.8 µM); against Escherichia coli, 25 µg/mL (≈ 78.8 µM).
Regarding `O=C(NCc1cn(Cc2ccc(F)cc2)nn1)c1cccnc1`, the MIC in the assay on Pseudomonas aeruginosa was 25 µg/mL (≈ 80.3 µM); in assay [1], 80.3 µM (≈ 25 µg/mL); against Staphylococcus aureus, 12.5 µg/mL (≈ 40.2 µM); with Escherichia coli, 12.5 µg/mL (≈ 40.2 µM).
With `O=C(OCc1cn(Cc2ccc(F)cc2)nn1)c1cnccn1`, the MIC in the assay on Pseudomonas aeruginosa is 25 µg/mL (≈ 79.8 µM); in assay [1] it was 9.95 µM (≈ 3.12 µg/mL); with Staphylococcus aureus, 12.5 µg/mL (≈ 39.9 µM); in the assay with Escherichia coli, 12.5 µg/mL (≈ 39.9 µM).
As for `N#Cc1ccc(Cn2cc(COC(=O)c3cccnc3)nn2)cc1`, the MIC was determined as 50 µg/mL (≈ 157 µM) against Pseudomonas aeruginosa, 78.3 µM (≈ 25 µg/mL) in assay [1], 25 µg/mL (≈ 78.3 µM) against Staphylococcus aureus and 50 µg/mL (≈ 157 µM) against Escherichia coli.
For `O=[N+]([O-])c1ccc(Cn2cc(CSc3nnc(-c4cccnc4)o3)nn2)cc1`, the MIC against Pseudomonas aeruginosa turned out to be 25 µg/mL (≈ 63.2 µM); in assay [1], 63.2 µM (≈ 25 µg/mL); against Staphylococcus aureus it was 25 µg/mL (≈ 63.2 µM); in the assay with Escherichia coli, 50 µg/mL (≈ 126 µM).
Take `FC(F)(F)c1ccc(Cn2cc(CSc3nnc(-c4cnccn4)o3)nn2)cc1`: the MIC with Pseudomonas aeruginosa is 25 µg/mL (≈ 59.6 µM); in assay [1] it was 59.6 µM (≈ 25 µg/mL); with Staphylococcus aureus, 25 µg/mL (≈ 59.6 µM); against Escherichia coli, 25 µg/mL (≈ 59.6 µM).
Turning to `O=C(O)c1cn(C2CC2)c2cc(N3CCNCC3)c(F)cc2c1=O` [CIPROFLOXACIN], the values for the MIC (in the assay on Pseudomonas aeruginosa; in assay [1]; against Staphylococcus aureus) were 4 µg/mL (≈ 12.1 µM), 9.41 µM (≈ 3.12 µg/mL) and 2 µg/mL (≈ 6.04 µM), respectively.
On to `Cc1ccc(Cn2cc(CSc3nnc(-c4cnccn4)o3)nn2)cc1`, for which the MIC against Pseudomonas aeruginosa was 25 µg/mL (≈ 68.4 µM); in assay [1], 8.53 µM (≈ 3.12 µg/mL); against Staphylococcus aureus it was 12.5 µg/mL (≈ 34.2 µM); in the assay on Escherichia coli, 12.5 µg/mL (≈ 34.2 µM).
Turning to `CN[C@@H]1[C@H](O[C@H]2[C@H](O[C@H]3[C@H](O)[C@@H](O)[C@H](N=C(N)N)[C@@H](O)[C@@H]3N=C(N)N)O[C@@H](C)[C@]2(O)C=O)O[C@@H](CO)[C@H](O)[C@H]1O`, the MIC in assay [1] was 11.7 µM (≈ 6.83 µg/mL).
For the compound `FC(F)(F)c1ccc(Cn2cc(CSc3nnc(-c4cccnc4)o3)nn2)cc1`, the MIC was 50 µg/mL (≈ 120 µM) with Pseudomonas aeruginosa, over 100 µM in assay [1], 25 µg/mL (≈ 59.8 µM) against Staphylococcus aureus and 50 µg/mL (≈ 120 µM) in the assay on Escherichia coli.
